System: patients scheduled for carotid surgery
Experiment: Randomized study of xenon versus sevoflurane for maintaining general anesthesia during carotid endarterectomy with clamping of the internal carotid artery
Format: in vivo, human being
Conditions: for average radial-carotid pressure gradient (PG) between systemic SAP and arterial pressure in the clamped carotid artery: during clamping of the internal carotid artery, group X (xenon 60%±5%, at least 30% oxygen) compared with group S (sevoflurane), 12 patients per group
Procedure: The study was carried out in 24 patients scheduled for carotid surgery, comprising men and women. The choice of treatment of the patients is made randomly (randomization): • either using a routine anesthetic agent, namely sevoflurane: group S of 12 patients, • or by inhalation of xenon at 60%±5% in a mixture with at least 30% of oxygen: group X of 12 patients (% by volume). Anesthesia was induced identically in the 2 groups using intravenous products, namely propofol (target 1.5 μg/ml) and a morphine compound, remifentanil (target 4 ng/ml), double TCI (Target Controlled Infusion). The main assessment criterion is the pressure gradient (PG) between the systolic arterial pressure (SAP) measured at the level of a radial arterial catheter contralateral to the surgery and the arterial pressure in the clamped carotid artery. This pressure is obtained by means of a Fogarty catheter, which also enables clamping of the internal carotid artery by inflation of the balloon, connected to a pressure sensor. The continuous recording and the calculation of the PG are carried out live by a BiopAC system. This method makes it possible to obtain a measurement of the PG throughout the entire duration of the clamping of the internal carotid artery. The statistical analyses are carried out with R Project for Statistician Computing (www.r-project.org).

Row | Structure (SMILES) | consumption of vasopressor products for maintaining the systemic arterial pressure (group S compared with group X, p<0.001) | average radial-carotid pressure gradient (PG) between systemic SAP and arterial pressure in the clamped carotid artery (p<0.001) | average radial-carotid pressure gradient (PG) between systemic SAP and arterial pressure in the clamped carotid artery (p<0.001, listed as group X) | hemodynamic parameters during maintenance of anesthesia (maintenance of anesthesia with xenon) | systemic systolic arterial pressure values (maintenance of anesthesia with xenon, compared with the usual inhaled or intravenous (IV) anesthetic agents)
1 | FCOC(C(F)(F)F)C(F)(F)F [sevoflurane, reference compound] | significantly higher |  |  |  | 
2 | [Xe] [xenon] |  | reduce the pressure gradient (PG) | significantly lower | stable | higher

— patent US20160030472A1, “XENON-BASED ANESTHETIC GAS COMPOSITION USABLE DURING AN ENDARTERECTOMY INVOLVING THE CLAMPING OF THE CAROTID ARTERY” (Air Liquide Santé (International), priority 2013, published 2016)
